Test results: patent US7589089B2, “Inhibitors for GlyT-1” (Hoffmann-La Roche Inc., priority 2006, dated 2009)

Target: T1, mGlyT-1b (Mus musculus, UniProt P28571)
T1 construct: host or cells: Flp-in-CHO
T1 sequence (P28571 1-651 isoform P28571-2): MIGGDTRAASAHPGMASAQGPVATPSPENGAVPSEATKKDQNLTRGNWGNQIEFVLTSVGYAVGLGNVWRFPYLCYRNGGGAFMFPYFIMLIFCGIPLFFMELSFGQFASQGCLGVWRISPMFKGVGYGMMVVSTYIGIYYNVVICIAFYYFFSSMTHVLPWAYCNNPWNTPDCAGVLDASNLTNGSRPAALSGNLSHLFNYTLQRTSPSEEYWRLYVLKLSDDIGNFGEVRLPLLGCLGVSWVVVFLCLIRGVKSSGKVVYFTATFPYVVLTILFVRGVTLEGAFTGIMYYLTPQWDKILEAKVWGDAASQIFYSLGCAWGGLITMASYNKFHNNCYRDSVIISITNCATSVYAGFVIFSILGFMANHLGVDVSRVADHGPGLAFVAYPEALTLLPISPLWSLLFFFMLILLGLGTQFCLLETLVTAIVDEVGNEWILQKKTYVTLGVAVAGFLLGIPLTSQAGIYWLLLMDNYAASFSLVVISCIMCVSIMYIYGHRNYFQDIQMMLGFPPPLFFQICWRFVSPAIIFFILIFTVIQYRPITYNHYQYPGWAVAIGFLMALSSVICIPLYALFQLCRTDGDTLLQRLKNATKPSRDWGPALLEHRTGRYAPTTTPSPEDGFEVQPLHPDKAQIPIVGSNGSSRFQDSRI
Assay: Glycine Uptake Inhibition Assay (mGlyT-1b)
Format: cell-based
Method: DMEM complete medium: Nutrient mixture F-12 (Gibco Life-technologies), fetal bovine serum (FBS) 5%, (Gibco life technologies), Penicillin/Streptomycin 1% (Gibco life technologies), Hygromycin 0.6 mg/ml (Gibco life technologies), Glutamine 1 mM Gibco life technologies)
Uptake buffer (UB): 150 mM NaCl, 10 mM Hepes-Tris, pH 7.4, 1 mM CaCl2, 2.5 mM KCl, 2.5 mM MgSO4, 10 mM (+) D-glucose.
Flp-in™-CHO (Invitrogen Cat n° R758-07) cells stably transfected with mGlyT1b cDNA.
Glycine Uptake Inhibition Assay (mGlyT-1b)
On day 1 mammalian cells, (Flp-in™-CHO), transfected with mGlyT-1b cDNA, were plated at the density of 40,000 cells/well in complete F-12 medium, without hygromycin in 96-well culture plates. On day 2, the medium was aspirated and the cells were washed twice with uptake buffer (UB). The cells were then incubated for 20 min at 22° C. with either (i) no potential competitor, (ii) 10 mM non-radioactive glycine, (iii) a concentration of a potential inhibitor. A range of concentrations of the potential inhibitor was used to generate data for calculating the concentration of inhibitor resulting in 50% of the effect (e.g. IC50, the concentration of the competitor inhibiting glycine uptake of 50%). A solution was then immediately added containing [^3H]-glycine 60 nM (11-16 Ci/mmol) and 25 μM non-radioactive glycine. The plates were incubated with gentle shaking and the reaction was stopped by aspiration of the mixture and washing (three times) with ice-cold UB. The cells were lysed with scintillation liquid, shaken 3 hours and the radioactivity in the cells was counted using a scintillation counter.

| SMILES | IC50 [nM] |
| --- | --- |
| O=C(CN(Cc1c(F)cccc1F)C(=O)c1ccc(Cl)cc1)Nc1cccc(Cl)c1 [Example 1, 4-Chloro-N-[(3-chloro-phenylcarbamoyl)-methyl]-N-(2,6-difluoro-benzyl)-benzamide] | 52 |
| O=C(CN(Cc1ccc(F)c(F)c1)C(=O)c1ccc(Cl)cc1)Nc1cccc(Cl)c1 [Example 2, 4-Chloro-N-[(3-chloro-phenylcarbamoyl)-methyl]-N-(3,4-difluoro-benzyl)-benzamide] | 265 |
| O=C(CN(Cc1cc(F)cc(F)c1)C(=O)c1ccc(Cl)cc1)Nc1cccc(Cl)c1 [Example 3, 4-Chloro-N-[(3-chloro-phenylcarbamoyl)-methyl]-N-(3,5-difluoro-benzyl)-benzamide] | 184 |
| O=C(CN(Cc1cccc(F)c1F)C(=O)c1ccc(Cl)cc1)Nc1cccc(Cl)c1 [Example 4, 4-Chloro-N-[(3-chloro-phenylcarbamoyl)-methyl]-N-(2,3-difluoro-benzyl)-benzamide] | 74 |
| O=C(CN(Cc1ccc(F)cc1F)C(=O)c1ccc(Cl)cc1)Nc1cccc(Cl)c1 [Example 5, 4-Chloro-N-[(3-chloro-phenylcarbamoyl)-methyl]-N-(2,4-difluoro-benzyl)-benzamide] | 160 |
| O=C(CN(Cc1cc(F)ccc1F)C(=O)c1ccc(Cl)cc1)Nc1cccc(Cl)c1 [Example 6, 4-Chloro-N-[(3-chloro-phenylcarbamoyl)-methyl]-N-(2,5-difluoro-benzyl)-benzamide] | 165 |
| O=C(CN(Cc1cccc(F)c1)C(=O)c1ccc(Cl)cc1)Nc1cccc(Cl)c1 [Example 8, 4-Chloro-N-[(3-chloro-phenylcarbamoyl)-methyl]-N-(3-fluoro-benzyl)-benzamide] | 128 |
| O=C(CN(Cc1ccccc1F)C(=O)c1ccc(Cl)cc1)Nc1cccc(Cl)c1 [Example 9, 4-Chloro-N-[(3-chloro-phenylcarbamoyl)-methyl]-N-(2-fluoro-benzyl)-benzamide] | 74 |
| COc1ccc(C(=O)N(CC(=O)Nc2cccc(Cl)c2)Cc2ccsc2)cc1 [Example 10, N-[(3-Chloro-phenylcarbamoyl)-methyl]-4-methoxy-N-thiophen-3-ylmethyl-benzamide] | 285 |
| COc1ccc(C(=O)N(CC(=O)Nc2cccc(Cl)c2)Cc2c(F)cccc2F)cc1 [Example 11, N-[(3-Chloro-phenylcarbamoyl)-methyl]-N-(2,6-difluoro-benzyl)-4-methoxy-benzamide] | 100 |
| COc1ccc(C(=O)N(CC(=O)Nc2cccc(Cl)c2)Cc2cc(Cl)cc(Cl)c2)cc1 [Example 12, N-[(3-Chloro-phenylcarbamoyl)-methyl]-N-(3,5-dichloro-benzyl)-4-methoxy-benzamide] | 243 |
| COc1ccc(C(=O)N(CC(=O)Nc2cccc(Cl)c2)Cc2cccc(Cl)c2)cc1 [Example 14, N-(3-Chloro-benzyl)-N-[(3-chloro-phenylcarbamoyl)-methyl]-4-methoxy-benzamide] | 24 |
| O=C(CN(Cc1ccccc1)C(=O)c1ccc(F)cc1)Nc1cccc(Cl)c1 [Example 15, N-Benzyl-N-[(3-chloro-phenylcarbamoyl)-methyl]-4-fluoro-benzamide] | 312 |
| O=C(CN(Cc1ccccc1)C(=O)c1ccc(Cl)cc1)Nc1cccc(Cl)c1 [Example 16, N-Benzyl-4-chloro-N-[(3-chloro-phenylcarbamoyl)-methyl]-benzamide] | 156 |
| O=C(CN(Cc1cccs1)C(=O)c1ccc(Cl)cc1)Nc1cccc(Cl)c1 [Example 17, 4-Chloro-N-[(3-chloro-phenylcarbamoyl)-methyl]-N-thiophen-2-ylmethyl-benzamide] | 77 |
| COc1ccc(C(=O)N(CC(=O)Nc2ccc(Cl)c(Cl)c2)Cc2cccs2)cc1 [Example 18, N-[(3,4-Dichloro-phenylcarbamoyl)-methyl]-4-methoxy-N-thiophen-2-ylmethyl-benzamide] | 257 |
| COc1ccc(C(=O)N(CC(=O)Nc2cccc(Cl)c2)Cc2c(Cl)cccc2Cl)cc1 [Example 19, N-[(3-Chloro-phenylcarbamoyl)-methyl]-N-(2,6-dichloro-benzyl)-4-methoxy-benzamide] | 164 |
